Patent US20190038674A1, “Formulation for the Treatment of Diabetes” (priority 2013, published 2019)
Several values for one entry are separate records, joined by “and”; a condition that tells them apart may be missing. Identical values can stand only once.

Assays:
Type in all cases: in vivo, Wistar Albino rat
[1] = test system: streptozotocin treated diabetic rats; assay: Serum lipid profile (cholesterol, LDL, HDL, triglyceride) in streptozotocin treated diabetic rats; details: for Lipid profile Cholesterol / Lipid profile HDL / Lipid profile LDL / Lipid profile Triglyceride: after 15th day, Glyclazide 1.44 mg/200 g body weight daily
Description: (§1) Diabetes was induced in rats by the intra peritoneal injection of streptozotocin (Himedia) at a dose of 50 mg/kg body weight dissolved in citrate buffer (0.1 M, pH 4.5) in the volume of 1 ml/kg. The diabetic rats were given 5% w/v glucose solution orally in order to prevent hypoglycemia during the first day after the streptozotocin administration. Three days after the injection (six group), the blood glucose levels were measured and the animals with blood glucose levels above 300 mg/dl were considered as being diabetic and were used in the subsequent experiments. In all the experiments, rats were fasted for 16 hr prior to streptozotocin injection. • a. Total units=202.5 • b. 1 ml=40 units, 0.1 ml=4 units • c. Therefore total units 202.5/40 units=5.06 ml of streptozotocin solution • d. Freshly prepared streptozotocin solution (5.06 ml of solution/36 rats according to body weight) fed as a single dose only once to induce diabetes.
(§2) Experimental rats were divided in 4 groups of 6 rats per group and 4th group further divided in 4 groups with 6 rats in each sub group. The details of treatments were given below:
(§3) Blood samples were collected retro-orbitally from the inner canthus of the eye under light ether anesthesia using capillary tubes (Micro Hemocrit Capillariea, Mucaps) as described by Sorg and Buckner (1964); Blood was transferred into fresh vials and serum was separated by centrifuging at 2000 rpm for 2 min. Blood glucose levels were measured using Accu-Check glucose kit.
(§4) To observe the effect of administration of cow urine powder SMP blends and standard drug glyclazide diabetic rats was determined by measuring the fasting blood glucose levels and serum lipid profiles.
(§5) Day 3 of induction was designed as day 1 for administration of the standard drug glyclazide and cow urine SMP blends to diabetic rats, fasting blood glucose levels measured on days 1, 5, 10 and 15 of the experiment period. Other parameters were determined on after day 15 and residual study was carried out for another 15 days to observe the reappearance diabetes.
The serum lipid profile parameters such as cholesterol, HDL, LDL and triglycerides content were studied by using blood serum obtained during the experiments.
Cholesterol content in the blood samples were analyzed by using Bio Chemistry
Analyzer which is working on the principle of Lambert's-Beer's law.
For estimation of triglycerides, Bio-chemistry Analyzer was used.

[2] = test system: streptozotocin treated diabetic rats; assay: Fasting blood glucose in streptozotocin induced diabetic rats, 15 days of treatment; details: for Blood glucose on 15th day: Glyclazide 1.44 mg/200 g body weight, single oral dose daily, day 1 to 15; for Blood glucose on 1st day: before treatment, group later given Glyclazide 1.44 mg/200 g body weight oral daily
Description: Albino Wistar rats of both sex (male and female) were procured from the laboratory of Columbia Institute of Pharmacy Tekari, Raipur 493111 (C.G.), India, and were maintained under a 12 h light/dark cycle and allowed for feed and water without limit. Approved experimental protocol in accordance with the guidelines provided by the committee for the control and supervision of experiments on animals (CPCSEA). The experimental rats were registered by CPCSEA and registration number was 1321/ac/10/CPCSEA.
A. Species: Wistar Albino rat
as §1, §2
c. Group 3—Standard drug group—Diabetic animals received daily a single oral dose of the reference drug Glyclazide 1.44 mg/200 g body weight from day 1 to 15. […]
as §3, §4, §5
(§6) Blood glucose was measured by using Accu-Check Active Glucometer (Roche) and the result was expressed as milligram per deciliter (mg/dl). This instrument is working on the principle of photometry.

[3] = test system: streptozotocin treated diabetic rats; assay: Residual effect on blood glucose levels of diabetic rats during 15-day residual period after treatment; details: residual period after withdrawal, Glyclazide 1.44 mg/200 g
Description: as §5, §6
Residual effect of standard drug glyclazide group, skim milk powder group and cow urine powder SMP blends groups (100, 200 and 400 mg) for residual of blood glucose levels in streptozotocin treated rats for 15 days and observations were recorded.

[4] = starting value, Glyclazide group

In the case of `Cc1ccc(S(=O)(=O)NC(=O)NN2CC3CCCC3C2)cc1` (centres unmarked) [Standard Glyclazide, Glyclazide], the “Lipid profile Cholesterol” value [1] is reported as 67.72 ± 3.37 mg/dL, the “Lipid profile HDL” value [1] is reported as 51.55 ± 1.91 mg/dL and the “Lipid profile LDL” value [1] is reported as 16.17 ± 5.25 mg/dL. For the same compound, the “Lipid profile Triglyceride” value [1] was 95.35 ± 3.10 mg/dL, the “Lipid profile Cholesterol” value ([1]; listed as glyclazide) was 67.72 mg/dL and the “Lipid profile HDL” value ([1]; listed as glyclazide) was 51.55 mg/dL. The “Lipid profile LDL” value ([1]; listed as glyclazide) was 16.17 mg/dL, the “Lipid profile Triglyceride” value ([1]; listed as glyclazide) was 95.35 mg/dL and the “blood HDL level before treatment (increased from)” value [1, 4] was 41.75 mg/dL. For the same compound, the “blood LDL level before treatment (reduced from)” value [1, 4] was 83.73 mg/dL, the “blood cholesterol level before treatment (reduced from)” value [1, 4] was 125.44 mg/dL and the “triglyceride level before treatment (reduced from)” value [1, 4] was 187.96 mg/dL. For the same compound, the “Blood glucose on 15th day” value [2] was 125.25 ± 12.33 mg/dL, the “Blood glucose on 15th day” value ([2]; listed as glyclazide) was 125.25 mg/dL and 125.2 mg/dL and the “Blood glucose on 1st day” value [2] was 599.16 ± 57.10 mg/dL. For the same compound, the “Blood glucose on 1st day” value ([2]; listed as glyclazide) was 599.1 mg/dL, the “percent reduce of blood glucose on 15th day” value ([2]; vs 1st day, Glyclazide 1.44 mg/200 g body weight daily) was “(79.09%)” and the “Blood glucose level 20th Day” value [3] was 176.50 ± 29.75 mg/dL. For the same compound, the “Blood glucose level 25th Day” value [3] was 174.76 ± 27.42 mg/dL, the “Blood glucose level 30th Day” value [3] was 201.57 ± 29.85 mg/dL and the “Blood glucose level 20th Day” value ([3]; listed as glyclazide) was 176.50 mg/dL. For the same compound, the “Blood glucose level 25th Day” value ([3]; listed as glyclazide) was 174.76 mg/dL and the “Blood glucose level 30th Day” value ([3]; listed as glyclazide) was 201.57 mg/dL.
